US20070166251A1, “Composition and method for treating hyperpigmented skin” (LIPO CHEMICALS INC., priority 2005, published 2007)

Tests used:
[1] = clinical study of skin brightening and skin redness (chromameter readings); format: in vivo, human; conditions: 0.3% emulsion twice daily
Description: The skin brightening efficacy of p-HCA in ethoxydyglycol versus kojic acid also was tested in a clinical study. In this study, an emulsion containing 0.3%, by weight, p-HCA or kojic acid was used on twenty, mostly female, subjects between the ages of 30 to 50 years. The test composition was applied to the abdomen twice daily (a.m. and p.m.). The test was conducted for eight weeks, and chromameter readings were taken at baseline, and after 2, 4, 6, and 8 weeks.

[2] = metabolism of p-HCA in homogenized human skin; format: in vitro ADME; conditions: eight hours of incubation with skin enzymes, 37° C.
Description: First, to confirm in vivo activity of p-HCA, the metabolism of p-HCA in the skin was determined. In this test, human skin was homogenized in a PBS (phosphate-buffered saline)-ethanol solution, followed by dissolution of p-HCA. The solution was incubated at 37° C. for 8 hours. Samples were taken after 0, 4, and 8 hours, and were centrifuged. The supernatant was filtered and analyzed by HPLC. […] The amount of p-HCA that is metabolized was considered insignificant with respect to an efficacious treatment of hyperpigmentation.

[3] = solubility of p-HCA in various solvents (HPLC); format: physicochemical
Description: Various solvents were tested for an ability to dissolve p-HCA and provide a suitable composition for topical application to efficaciously treat hyperpigmentation, e.g., to allow the HCA to permeate the surface of the skin and deposit the p-HCA at the site of melanin formation. p-HCA was added to various solvents, then sonicated for two hours at 35° C. until no further HCA was dissolved. The samples were cooled to room temperature (25° C.) and allowed to stabilize for 15 hours. The undissolved p-HCA was allowed to settle, the supernatant liquid was filtered through a 0.2 micron syringe filter. Approximately 0.08 g of this filtered material was weighed into a 25 ml volumetric flask and diluted to volume with HPLC mobile phase. Two standards were analyzed by HPLC and compared to the two samples. All samples were analyzed by HPLC on a Hypersil ODS C18 column using water, methanol, glacial acetic acid (55:45:1) as the mobile phase. The flow rate was 1 ml/min and the wavelength for detection was 270 nm.

[4] = skin penetration, Franz diffusion cells; format: in vitro ADME, human
Description: In another experiment, a 10% solution of p-HCA in ethoxydiglycol first was prepared. This solution was added to a skin care emulsion in a sufficient amount to provide either 0.3% or 0.1%, by weight, of p-HCA in the final composition. As a comparative example, 0.3%, by weight, of solid p-HCA was added to the same skin care emulsion. The skin care emulsion to which solid p-HCA or the p-HCA solution was added had the following formula (w/w%): • 85.35 water • 0.2 methylparaben • 0.35 xanthan gum • 5.0 butylene glycol • 4.0 sesame oil • 2.5 glyceryl stearate • 0.5 PEG-150 distearate • 1.25 neopentyl glycol dicaprylate/dicaprate • 0.6 emulsifying wax • 0.25 imidazolidinyl urea.
The skin care emulsions containing p-HCA were applied to cadaver skin. Skin penetration of p-HCA was studied using Franz diffusion cells, n=5 (Permegear, Bethlehem, Pa.). The receptor contained an isotonic phosphate buffer with 30% ethanol, and was stirred continuously at 600 rpm. Samples of dermatomed human cadaver skin (NDRA, Philadelphia) were placed on the cells and prehydrated for 1 hour prior to the experiment. One milliliter of each formulation was added to the donor compartment of each cell, which was covered tightly with PARAFIL®. Samples (300 μl) were withdrawn from the receptor compartment every hour over 8 hours, and replaced with 300 μl of fresh receptor solution. After 8 hours, the skin was removed and cut into small pieces. The skin pieces were homogenized using a Kinematica POLYTRON® homogenizer and centrifuged. The supernatant was filtered through 0.22μ filters, and the p-HCA content was quantified.
All samples were analyzed by HPLC on a Hypersil ODS C18 column using water, methanol, glacial acetic acid (55:45:1) as the mobile phase at a flow rate of 1 ml/min and detection at 270 nm. Lag time and flux were obtained from permeation profiles and skin drug content also was recorded.
This experiment was repeated using PEG-4 as the solvent for the p-HCA.
The method used to determine skin permeability was the Franz diffusion method disclosed above. […] In particular, 3.9 mcg/ml of p-HCA was found in the receptor compartment of the skin (i.e., permeated through the skin) as opposed to 16.3 mcg/ml p-HCA found within the skin.

[5] = ethoxydiglycol vs solid p-HCA, FIG. 1 and Table 1
[6] = formula: 0.5% p-HCA, 53% ethanol, Carbopol 981, glycerin, triethanolamine, water
[7] = in presence of ethoxydiglycol vs powder form

O=c1cc(CO)occ1O [kojic acid]
effect on skin redness ([1]; throughout the eight-week clinical trial): did not reduce redness | effect on skin redness ([1]; weeks 4 and 8): induced redness

O=C(O)C=Cc1ccc(O)cc1 [p-HCA, p-hydroxycinnamic acid]
p-HCA metabolized [2]: 3.6% | solubility in 30% hydroethanolic solution ([3]; 30% hydroethanolic solution, 25° C.): 0.75 wt % | solubility in PEG-4 ([3]; PEG-4, 25° C.): 18.5 wt % | solubility in PEG-6 ([3]; PEG-6, 25° C.): 19.7 wt % | solubility in PEG-8 ([3]; PEG-8, 25° C.): 19.7 wt % | solubility in butylene glycol ([3]; butylene glycol, 25° C.): 2.25 wt % | solubility in diethylene glycol ([3]; diethylene glycol, 25° C.): 18.1 wt % | solubility in ethanol ([3]; ethanol, 25° C.): 14.8 wt % | solubility in ethoxydiglycol ([3]; ethoxydiglycol, 25° C.): 19.7 %, by weight | solubility in glycereth-26 ([3]; glycereth-26, 25° C.): 7 wt % | solubility in pentylene glycol ([3]; pentylene glycol, 25° C.): 1.75 wt % | solubility in silicone fluid DC 193 ([3]; silicone fluid DC 193, 25° C.): 4.7 wt % | deposition of p-HCA on the skin compared to a control ([4]; PEG-4 as the solvent for the p-HCA): significantly increased | elevation of deposition of p-HCA in the skin [4, 5]: 93% | increase of flux into the skin [4, 5]: 107% | amount of HCA deposited in the skin relative to amount transmitted through the skin [4, 6]: four times greater | p-HCA found in the receptor compartment (permeated through the skin) [4, 6]: 3.9 µg/mL | p-HCA found within the skin [4, 6]: 16.3 µg/mL | change of flux of p-HCA through the skin [4, 7]: doubled | elevation of percent of p-HCA that permeates cadaver skin [4, 7]: 43% | elevation of percentage of p-HCA that remained within the skin [4, 7]: about 50%
